The IC50 is the point on the concentration scale where inhibition reaches its midpoint. Low readings indicate higher potency, high ones lower potency.

Assay [1] relates to CDK8 (TCF/LEF luciferase reporter in HCT116 cells). In words: Cell based TCF/LEF reporter assay (HCT116+TCF/LEF luciferase). The note with it: Homo sapiens. In short, it runs like this:
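Luciferase readout was corrected for viability (CellTiter-Fluor) and scaled between DMSO high and 10 uM CCT251545 low controls, giving IC50 by nonlinear regression. Compounds, serially diluted, were incubated 24 h at 37 °C on HCT116 clones stably expressing a TCF/LEF-driven luciferase reporter.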
(In a reporter assay the amount or activity of a reporter protein is the signal.)

Assay [2] relates to CDK8 (phosphorylation of STAT1 at serine 727 in A549 cells). In words: Cell based Phospho-STAT1 assay (IFNγ-stimulated A549 cells, AlphaLISA). Particulars: Homo sapiens, phospho-STAT1 after IFNγ stimulation. In short, it runs like this: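 A549 cells given serial compound dilutions for 1 h at 37 °C, then stimulated with IFNγ at 10 ng/mL final for 30 min. Lysate STAT1 Ser727 phosphorylation measured by AlphaLISA; % inhibition vs stimulated/unstimulated DMSO controls, IC50 by nonlinear regression.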
Background: Alpha assays give light when donor and acceptor beads are brought close together.

As to `N#CC1CC=C(c2cccn3ncc(-c4cc5ccccc5s4)c23)CC1` (centres unmarked) [Compound P-0121, 4-(3-(benzo[b]thiophen-2-yl)pyrazolo[1,5-a]pyridin-4-yl)cyclohex-3-ene-1-carbonitrile], the half-inhibitory concentration (IC50) in assay [1] (HCT-116, 24 h) was 0.1 to 100 nM; in assay [2] (A549, A549 cells), 0.1 to 100 nM.

`Cn1cc(-c2ccc(-c3cnn4cccc(N5CCC(F)(C#N)CC5)c34)cc2)cn1` [Compound P-0293, 4-fluoro-1-(3-(4-(1-methyl-1H-pyrazol-4-yl)phenyl)pyrazolo[1,5-a]pyridin-4-yl)piperidine-4-carbonitrile]: the IC50 in assay [1] (HCT-116, 24 h) was 1000 to 10000 nM; in assay [2] (A549, A549 cells) it was 0.1 to 100 nM.

For the molecule `Cn1cc(-c2ccc(-c3cnc4[nH]ccc4c3C3=CCC(C#N)CC3)cc2)cn1` (centres unmarked) [Compound P-0359, 4-(5-(4-(1-methyl-1H-pyrazol-4-yl)phenyl)-1H-pyrrolo[2,3-b]pyridin-4-yl)cyclohex-3-ene-1-carbonitrile], the concentration for half-maximal inhibition (IC50) in assay [1] (HCT-116, 24 h) lay within 0.1 to 100 nM; in assay [2] (A549, A549 cells) it was 0.1 to 100 nM.

Consider `N#CC1CC=C(c2nccn3ncc(-c4ccc(-c5cnn(CCN6CCOCC6)c5)cc4)c23)CC1` (centres unmarked) [Compound P-0051, 4-(3-(4-(1-(2-morpholinoethyl)-1H-pyrazol-4-yl)phenyl)pyrazolo[1,5-a]pyrazin-4-yl)cyclohex-3-ene-1-carbonitrile], for which the IC50 in assay [1] (HCT-116, 24 h) was 0.1 to 100 nM; in assay [2] (A549, A549 cells) it was 0.1 to 100 nM.

In the case of `CN1CCN(C(=O)c2ccc(-c3cnc4[nH]ccc4c3C3=CCC(C#N)CC3)cc2)CC1` (centres unmarked) [Compound P-0331, 4-(5-(4-(4-methylpiperazine-1-carbonyl)phenyl)-1H-pyrrolo[2,3-b]pyridin-4-yl)cyclohex-3-ene-1-carbonitrile], the IC50 in assay [1] (HCT-116, 24 h) was in the range of 100 to 1000 nM; in assay [2] (A549, A549 cells) it was 100 to 1000 nM.

Regarding `CS(=O)(=O)Nc1ccc2cc(-c3cnn4ccnc(C5=CCC(C#N)CC5)c34)ccc2c1` (centres unmarked) [Compound P-0166, N-(6-(4-(4-cyanocyclohex-1-en-1-yl)pyrazolo[1,5-a]pyrazin-3-yl)naphthalen-2-yl)methanesulfonamide], the IC50 in assay [1] (HCT-116, 24 h) lay within 0.1 to 100 nM; in assay [2] (A549, A549 cells), 0.1 to 100 nM.

On to `N#CC1CCC(c2nccn3ncc(-c4ccc(-c5cnn(CCF)c5)cc4)c23)CC1` (centres unmarked) [Compound P-0007, (1s,4s)-4-(3-(4-(1-(2-fluoroethyl)-1H-pyrazol-4-yl)phenyl)pyrazolo[1,5-a]pyrazin-4-yl)cyclohexane-1-carbonitrile], for which the IC50 in assay [1] (HCT-116, 24 h) was 0.1 to 100 nM; in assay [2] (A549, A549 cells) it was 0.1 to 100 nM.

Take `COc1ccc2cc(-c3cnn4cccc(C5CCC(C#N)CC5)c34)ccc2n1` (centres unmarked) [Compound P-0195, 4-(3-(2-methoxyquinolin-6-yl)pyrazolo[1,5-a]pyridin-4-yl)cyclohexane-1-carbonitrile]: the half-maximal inhibitory concentration (IC50) fell in the range of 0.1 to 100 nM in assay [1] (HCT-116, 24 h) and 0.1 to 100 nM in assay [2] (A549, A549 cells).

For `CC(C)(C#Cc1cccn2ncc(-c3ccc(-c4cnn(CC5(C#N)CC5)c4)cc3)c12)C(N)=O` [Compound P-0052, 4-(3-(4-(1-((1-cyanocyclopropyl)methyl)-1H-pyrazol-4-yl)phenyl)pyrazolo[1,5-a]pyridin-4-yl)-2,2-dimethylbut-3-ynamide], the half-maximal inhibitory concentration (IC50) in assay [1] (HCT-116, 24 h) lay in the range of 0.1 to 100 nM; in assay [2] (A549, A549 cells) it was 0.1 to 100 nM.

On to `N#CC1CC=C(c2c(-c3ccc4c(c3)NC(=O)C4)cnc3[nH]ccc23)CC1` (centres unmarked) [Compound P-0208, 4-(5-(2-oxoindolin-6-yl)-1H-pyrrolo[2,3-b]pyridin-4-yl)cyclohex-3-ene-1-carbonitrile], for which the concentration for half-maximal inhibition (IC50) in assay [1] (HCT-116, 24 h) is 0.1 to 100 nM; in assay [2] (A549, A549 cells) it was 0.1 to 100 nM.

Take `N#CC1CCC(c2cccn3ncc(-c4ccc(OCC5CCCCO5)cc4)c23)CC1` (centres unmarked) [Compound P-0144, 4-(3-(4-((tetrahydro-2H-pyran-2-yl)methoxy)phenyl)pyrazolo[1,5-a]pyridin-4-yl)cyclohexane-1-carbonitrile]: the IC50 lay in the range of 0.1 to 100 nM in assay [1] (HCT-116, 24 h) and 0.1 to 100 nM in assay [2] (A549, A549 cells).

Turning to `Cn1cc(-c2ccc(-c3cnn4cccc(C5=CCN(C(N)=O)CC5)c34)cc2)cn1` [Compound P-0185, 4-[3-[4-(1-methylpyrazol-4-yl)phenyl]pyrazolo[1,5-a]pyridin-4-yl]-3,6-dihydro-2H-pyridine-1-carboxamide], the half-maximal inhibitory concentration (IC50) is 1000 to 10000 nM in assay [1] (HCT-116, 24 h) and 100 to 1000 nM in assay [2] (A549, A549 cells).

With `O=C1NCCC12CCN(c1cccn3ncc(-c4ccc(OCCOC5CCOCC5)cc4)c13)CC2` [Compound P-0145, 8-(3-(4-(2-((tetrahydro-2H-pyran-4-yl)oxy)ethoxy)phenyl)pyrazolo[1,5-a]pyridin-4-yl)-2,8-diazaspiro[4.5]decan-1-one], the IC50 was 0.1 to 100 nM in assay [1] (HCT-116, 24 h) and 0.1 to 100 nM in assay [2] (A549, A549 cells).

For `N#CCCn1cc(-c2ccc(-c3cnn4ccnc(C5CCC(C#N)CC5)c34)cc2)cn1` (centres unmarked) [Compound P-0098, 4-(3-(4-(1-(2-cyanoethyl)-1H-pyrazol-4-yl)phenyl)pyrazolo[1,5-a]pyrazin-4-yl)cyclohexane-1-carbonitrile], the IC50 in assay [1] (HCT-116, 24 h) was 0.1 to 100 nM; in assay [2] (A549, A549 cells) it was 0.1 to 100 nM.

`N#CC1CC=C(c2nccn3ncc(-c4ccc(-c5cn[nH]c5)cc4)c23)CC1` (centres unmarked) [Compound P-0008, 4-(3-(4-(1H-pyrazol-4-yl)phenyl)pyrazolo[1,5-a]pyrazin-4-yl)cyclohex-3-ene-1-carbonitrile]: the IC50 in assay [1] (HCT-116, 24 h) was 0.1 to 100 nM; in assay [2] (A549, A549 cells), 0.1 to 100 nM.

For the molecule `N#CC1CC=C(c2c(-c3ccc(-c4cnn(C(F)F)c4)cc3)cnc3[nH]ccc23)CC1` (centres unmarked) [Compound P-0270, 4-(5-(4-(1-(difluoromethyl)-1H-pyrazol-4-yl)phenyl)-1H-pyrrolo[2,3-b]pyridin-4-yl)cyclohex-3-ene-1-carbonitrile], the IC50 in assay [1] (HCT-116, 24 h) fell in the range of 0.1 to 100 nM; in assay [2] (A549, A549 cells), 0.1 to 100 nM.

Regarding `N#CC1CC=C(c2nccn3ncc(-c4ccc(OCC(O)CN5CCCCC5)cc4)c23)CC1` (centres unmarked) [Compound P-0084, 4-(3-(4-(2-hydroxy-3-(piperidin-1-yl)propoxy)phenyl)pyrazolo[1,5-a]pyrazin-4-yl)cyclohex-3-ene-1-carbonitrile], the IC50 in assay [1] (HCT-116, 24 h) lay in the range of 0.1 to 100 nM; in assay [2] (A549, A549 cells) it was 0.1 to 100 nM.

Turning to `N#CC1CC=C(c2c(-c3ccc4[nH]c(=O)[nH]c4c3)cnc3[nH]ccc23)CC1` (centres unmarked) [Compound P-0206, 4-(5-(2-oxo-2,3-dihydro-1H-benzo[d]imidazol-5-yl)-1H-pyrrolo[2,3-b]pyridin-4-yl)cyclohex-3-ene-1-carbonitrile], the IC50 lay within 0.1 to 100 nM in assay [1] (HCT-116, 24 h) and 0.1 to 100 nM in assay [2] (A549, A549 cells).

Turning to `N#CC1CCC(c2cccn3ncc(-c4ccc(OCC(O)CN5CCCCC5)cc4)c23)CC1` (centres unmarked) [Compound P-0143, 4-(3-(4-(2-hydroxy-3-(piperidin-1-yl)propoxy)phenyl)pyrazolo[1,5-a]pyridin-4-yl)cyclohexane-1-carbonitrile], the IC50 in assay [1] (HCT-116, 24 h) fell in the range of 0.1 to 100 nM; in assay [2] (A549, A549 cells), 0.1 to 100 nM.

In the case of `N#CC1CCC(c2nccn3ncc(-c4ccc(N5CCOCC5)c(F)c4)c23)CC1` (centres unmarked) [Compound P-0101, 4-(3-(3-fluoro-4-morpholinophenyl)pyrazolo[1,5-a]pyrazin-4-yl)cyclohexane-1-carbonitrile], the IC50 in assay [1] (HCT-116, 24 hours) was 100 to 1000 nM; in assay [2] (A549 cells), 0.1 to 100 nM.

Consider `O=C(C1CCC(c2cccn3ncc(-c4ccc(-c5cnn(C(F)F)c5)cc4)c23)CC1)N1CCC1` (centres unmarked) [Compound P-0315, azetidin-1-yl(4-(3-(4-(1-(difluoromethyl)-1H-pyrazol-4-yl)phenyl)pyrazolo[1,5-a]pyridin-4-yl)cyclohexyl)methanone], for which the IC50 in assay [1] (HCT-116, 24 h) was in the range of 100 to 1000 nM; in assay [2] (A549, A549 cells), 100 to 1000 nM.

Regarding `N#CC1CC=C(c2nccn3ncc(-c4ccc(-c5cnn(CCN6CCCC6)c5)cc4)c23)CC1` (centres unmarked) [Compound P-0049, 4-(3-(4-(1-(2-(pyrrolidin-1-yl)ethyl)-1H-pyrazol-4-yl)phenyl)pyrazolo[1,5-a]pyrazin-4-yl)cyclohex-3-ene-1-carbonitrile], the IC50 in assay [1] (HCT-116, 24 h) is 0.1 to 100 nM; in assay [2] (A549, A549 cells), 0.1 to 100 nM.

Turning to `COc1ccc2cc(-c3cnn4ccnc(C#CC(C)(C)C(N)=O)c34)ccc2n1` [Compound P-0117, 4-[3-(2-methoxy-6-quinolyl)pyrazolo[1,5-a]pyrazin-4-yl]-2,2-dimethyl-but-3-ynamide], the IC50 is 0.1 to 100 nM in assay [1] (HCT-116, 24 h) and 0.1 to 100 nM in assay [2] (A549, A549 cells).

Regarding `CC(C)(O)Cn1cc(-c2ccc(-c3cnn4ccnc(C#CC(C)(C)C(N)=O)c34)cc2)cn1` [Compound P-0110, 4-(3-(4-(1-(2-hydroxy-2-methylpropyl)-1H-pyrazol-4-yl)phenyl)pyrazolo[1,5-a]pyrazin-4-yl)-2,2-dimethylbut-3-ynamide], the IC50 in assay [1] (HCT-116, 24 h) is 0.1 to 100 nM; in assay [2] (A549, A549 cells) it was 0.1 to 100 nM.

In the case of `Cn1cc(-c2ccc(-c3cnn4ccnc(C5=CCC(C(N)=O)CC5)c34)cc2)cn1` (centres unmarked) [Compound P-0280, 4-(3-(4-(1-methyl-1H-pyrazol-4-yl)phenyl)pyrazolo[1,5-a]pyrazin-4-yl)cyclohex-3-ene-1-carboxamide], the IC50 lay in the range of 0.1 to 100 nM in assay [1] (HCT-116, 24 h) and 0.1 to 100 nM in assay [2] (A549, A549 cells).

For `N#CC1C2CCC1CN(c1cccn3ncc(-c4ccc(Cl)cc4)c13)C2` (centres unmarked) [Compound P-0161, 3-(3-(4-chlorophenyl)pyrazolo[1,5-a]pyridin-4-yl)-3-azabicyclo[3.2.1]octane-8-carbonitrile], the half-inhibitory concentration (IC50) in assay [1] (HCT-116, 24 h) lay within 1000 to 10000 nM; in assay [2] (A549, A549 cells), 1000 to 10000 nM.

In the case of `N#CC1CCC(c2cccn3ncc(-c4ccc5cc(C(=O)O)ccc5c4)c23)CC1` (centres unmarked) [Compound P-0193, 6-(4-(4-cyanocyclohexyl)pyrazolo[1,5-a]pyridin-3-yl)-2-naphthoic acid], the IC50 is 1000 to 10000 nM in assay [1] (HCT-116, 24 h) and 100 to 1000 nM in assay [2] (A549, A549 cells).

For `N#CC1CC=C(c2cccn3ncc(-c4ccc5cccnc5c4)c23)CC1` (centres unmarked) [Compound P-0124, 4-(3-(quinolin-7-yl)pyrazolo[1,5-a]pyridin-4-yl)cyclohex-3-ene-1-carbonitrile], the 50% inhibitory concentration (IC50) in assay [1] (HCT-116, 24 h) was 100 to 1000 nM; in assay [2] (A549, A549 cells) it was 0.1 to 100 nM.
